Converted amounts (≈) assume the structure as drawn.
Legend:
[1] = test system: C. albicans ATCC 64124 (strain B); experiment: microbe, parasite or virus in culture; assay type: cell-based, Candida albicans; settings: strain B; compounds 1-4n and AmB; 48 h, RPMI 1640
Description: (§1) Fungal MIC determination experiments were performed using untreated 96-well plates (Corning). Cells were counted either by using a hemocytometer (Hausser Scientific, Horsham, Pa., USA) or by measuring optical density at attenuance of 600 nm (OD600) by using a Genesys 20 spectrophotometer (Thermo Scientific, Waltham, Mass., USA). Spectrophotometric and colorimetric measurements in 96-well plates were performed using a SpectraMax M5 spectrometer (Molecular Devices, Sunnyvale, Calif., USA).
(§2) Yeast strains Candida albicans ATCC 10231 (strain A), C. albicans ATCC 64124 (strain B), and C. albicans ATCC MYA-2876(S) (strain C) were kindly provided by Dr. Jon Y. Takemoto (Utah State University, Logan, UT, USA). C. albicans ATCC MYA-90819(R) (strain D), C. albicans ATCC MYA-2310(S) (strain E), C. albicans ATCC 1237(R) (strain F), C. albicans ATCC MYA-1003(R) (strain G), Candida glabrata ATCC 2001 (strain H), Candida krusei ATCC 6258 (strain I), and Candida parapsilosis ATCC 22019 (strain J) were obtained from the American Type Culture Collection (ATCC, Manassas, Va., USA). The (S) and (R) indicate that ATCC reports these strains to be susceptible (S) and resistant (R) to ITC and FLC. The filamentous fungal strains Aspergillus flavus ATCC MYA-3631 (strain K), and Aspergillus terreus ATCC MYA-3633 (strain M) were also obtained from the American Type Culture Collection (ATCC, Manassas, Va., USA). Aspergillus nidulans ATCC 38163 (strain L) was kindly provided by Dr. Jon S. Thorson (University of Kentucky, Lexington, Ky., USA), respectively. Yeast strains were cultured at 35° C. Filamentous fungal strains were cultured at 25° C. and the spores were harvested. All fungal strains were cultured in RPMI 1640 medium (catalog # R6504, Sigma-Aldrich Chemical Co., St. Louis, Mo.) buffered to pH 7.0 with 0.165 M morpholinepropanesulfonic acid (MOPS) buffer (Sigma-Aldrich Chemical Co.).
(§3) The MIC values against fungal strains were determined based on a previously published protocol. MIC values for ebsulfur (2a) analogues against fungal cells were evaluated in 96-well plates as described in the CLSI document M27-A3 with minor modifications. […] Therefore, potato dextrose broth (PDB) was used to grow the yeast inocula of all strains tested, which were later diluted in RPMI 1640 medium to perform determination of MIC values. […] The tested compounds (10 mg/mL) were diluted to the working stocks (500 μg/mL) by addition of DMSO. Two-fold serial dilution of the working stocks was prepared by addition of RPMI 1640 medium (100 μL) and cell suspension (100 μL) to 96-well microtiter plate to achieve final drug and inoculum concentrations ranging from 12.5-0.02 μg/mL and 5×10^3 CFU/mL, respectively. Plates were incubated for 48 h at 35° C. […]

[2] = test system: C. albicans ATCC 90819(R) (strain D); experiment: microbe, parasite or virus in culture; assay type: cell-based, Candida albicans; settings: strain D; compounds 1-4n and AmB; 48 h, RPMI 1640
Description: as §1, §2, §3

[3] = test system: C. albicans ATCC MYA-1003(R) (strain G); experiment: microbe, parasite or virus in culture; assay type: cell-based, Candida albicans; settings: strain G; compounds 1-4n and AmB; 48 h, RPMI 1640
Description: as §1, §2, §3

[4] = test system: C. albicans ATCC MYA-1237(R) (strain F); experiment: microbe, parasite or virus in culture; assay type: cell-based, Candida albicans; settings: strain F; compounds 1-4n and AmB; 48 h, RPMI 1640
Description: as §1, §2, §3

[5] = test system: C. albicans ATCC MYA-2310(S) (strain E); experiment: Antifungal MIC determination (CLSI M27-A3, 96-well); assay type: cell-based, Candida albicans; settings: strain E; compounds 1-4n and AmB; 48 h, RPMI 1640
Description: as §1, §2, §3

[6] = test system: C. albicans ATCC MYA-2876(S) (strain C); experiment: as above; assay type: cell-based, Candida albicans; settings: strain C; compounds 1-4n and AmB; 48 h, RPMI 1640
Description: as §1, §2, §3

[7] = test system: Candida albicans ATCC 10231 (strain A); experiment: as above; assay type: cell-based; settings: strain A; compounds 1-4n and AmB; 48 h, RPMI 1640
Description: as §1, §2, §3

[8] = test system: Candida glabrata ATCC 2001 (strain H); experiment: as above; assay type: cell-based; settings: strain H; compounds 1-4n and AmB; 48 h, RPMI 1640
Description: as §1, §2, §3

[9] = test system: Candida krusei ATCC 6258 (strain I); experiment: as above; assay type: cell-based; settings: strain I; compounds 1-4n and AmB; 48 h, RPMI 1640
Description: as §1, §2, §3

[10] = test system: Candida parapsilosis ATCC 22019 (strain J); experiment: as above; assay type: cell-based; settings: strain J; compounds 1-4n and AmB; 48 h, RPMI 1640
Description: as §1, §2, §3

[11] = test system: Aspergillus flavus ATCC MYA-3631 (strain K); experiment: Antifungal MIC determination, filamentous fungi spores; assay type: cell-based; settings: all compounds
Description: as §1, §2
(§4) The MIC values against fungal strains were determined based on a previously published protocol. MIC values for ebsulfur (2a) analogues against fungal cells were evaluated in 96-well plates as described in the CLSI document M27-A3 with minor modifications. […] Therefore, potato dextrose broth (PDB) was used to grow the yeast inocula of all strains tested, which were later diluted in RPMI 1640 medium to perform determination of MIC values. […] The tested compounds (10 mg/mL) were diluted to the working stocks (500 μg/mL) by addition of DMSO. Two-fold serial dilution of the working stocks was prepared by addition of RPMI 1640 medium (100 μL) and cell suspension (100 μL) to 96-well microtiter plate to achieve final drug and inoculum concentrations ranging from 12.5-0.02 μg/mL and 5×10^3 CFU/mL, respectively. Plates were incubated for 48 h at 35° C.
(§5) MIC assays for the spore-forming filamentous fungi, such as strain A. flavus ATCC MYA-3631 (strain K), were performed in a similar fashion. The filamentous fungal strains were first cultured at 25° C. on potato dextrose agar (PDA) plates for 3-5 days or until confluent. Spores were collected by washing the surface of the agar plates with dd H2O (5 mL) and then isolated the spores by gravity filtration (the spores are H2O soluble). […] Researchers working with spores should wear a facemask to prevent spore inhalation.

[12] = test system: Aspergillus nidulans ATCC 38163 (strain L); experiment: as above; assay type: cell-based; settings: strain L; spores
Description: as §1, §2, §4, §5

[13] = test system: Aspergillus terreus ATCC MYA-3633 (strain M); experiment: as above; assay type: cell-based; settings: strain M; all compounds; spores
Description: as §1, §2, §4, §5

Candida strains (A-J) = experiment: Antifungal MIC, summary over panel of Candida strains; assay type: cell-based; settings: Candida strains A-J
Description: as §1, §2, §3

Structure (SMILES) | MIC-0 [1] [µg/mL] | MIC-0 [2] [µg/mL] | MIC-0 [3] [µg/mL] | MIC-0 [4] [µg/mL] | MIC-0 [5] [µg/mL] | MIC-0 [6] [µg/mL] | MIC-0 [7] [µg/mL] | MIC-0 [8] [µg/mL] | MIC-0 [9] [µg/mL] | MIC-0 [10] [µg/mL] | MIC-0 [11] [µg/mL] | MIC-0 [12] [µg/mL] | MIC-0 [13] [µg/mL] | MIC values against Candida strains, range (Candida strains (A-J)) [µg/mL]
C#Cc1ccc(-n2sc3ccccc3c2=O)cc1 [Compound 2f] | 12.5 (≈ 49.7 µM) | 12.5 (≈ 49.7 µM) | 12.5 (≈ 49.7 µM) | 12.5 (≈ 49.7 µM) | >12.5 | >12.5 | 12.5 (≈ 49.7 µM) | 6.25 (≈ 24.9 µM) | 6.25 (≈ 24.9 µM) | 12.5 (≈ 49.7 µM) | 12.5 (≈ 49.7 µM) | 12.5 (≈ 49.7 µM) | 12.5 (≈ 49.7 µM) | > 12.5
CC(C)c1ccc(-n2sc3ccccc3c2=O)cc1 [Compound 2e] | 3.13 (≈ 11.6 µM) | 3.13 (≈ 11.6 µM) | 3.13 (≈ 11.6 µM) | 6.25 (≈ 23.2 µM) | 3.13 (≈ 11.6 µM) | 3.13 (≈ 11.6 µM) | 3.13 (≈ 11.6 µM) | 3.13 (≈ 11.6 µM) | 3.13 (≈ 11.6 µM) | 3.13 (≈ 11.6 µM) | 6.25 (≈ 23.2 µM) | 6.25 (≈ 23.2 µM) | 6.25 (≈ 23.2 µM) | 3.13 to 6.25
O=c1c2ccccc2sn1-c1ccc(Br)cc1 [Compound 2d] | 3.13 (≈ 10.2 µM) | 3.13 (≈ 10.2 µM) | 3.13 (≈ 10.2 µM) | 1.56 (≈ 5.09 µM) | 0.78 (≈ 2.55 µM) | 1.56 (≈ 5.09 µM) | 3.13 (≈ 10.2 µM) | 6.25 (≈ 20.4 µM) | 3.13 (≈ 10.2 µM) | 6.25 (≈ 20.4 µM) | 12.5 (≈ 40.8 µM) | 12.5 (≈ 40.8 µM) | 12.5 (≈ 40.8 µM) | –
Cc1cc(C)cc(-n2sc3ccccc3c2=O)c1 [Compound 2j] | 6.25 (≈ 24.5 µM) | 12.5 (≈ 49 µM) | 3.13 (≈ 12.3 µM) | 3.13 (≈ 12.3 µM) | 0.78 (≈ 3.05 µM) | 1.56 (≈ 6.11 µM) | 3.13 (≈ 12.3 µM) | 12.5 (≈ 49 µM) | 12.5 (≈ 49 µM) | 12.5 (≈ 49 µM) | 12.5 (≈ 49 µM) | 12.5 (≈ 49 µM) | 12.5 (≈ 49 µM) | –
CCCCCCCCn1sc2ccccc2c1=O [Compound 3c] | 1.56 (≈ 5.92 µM) | 3.13 (≈ 11.9 µM) | 1.56 (≈ 5.92 µM) | 1.56 (≈ 5.92 µM) | 1.56 (≈ 5.92 µM) | 6.25 (≈ 23.7 µM) | 6.25 (≈ 23.7 µM) | 1.56 (≈ 5.92 µM) | 1.56 (≈ 5.92 µM) | 0.78 (≈ 2.96 µM) | ≤0.02 | ≤0.02 | ≤0.02 | –

Reference: patent US10544112B2, “Identification of ebsulfur analogues with broad-spectrum antifungal activity” (priority 2017, dated 2020)
